In general, EC50 refers to the concentration giving half of the maximal effect.

The text below walks through data of ChEMBL document CHEMBL5532727, “The Inhibitors of Mucosa-Associated Lymphoid Tissue Lymphoma Translocation Protein 1 (MALT-1) Protease as Potential Treatment of ABC-DLBCL and Similar Diseases” (ACS Med Chem Lett, 2024).

Molecules are shown by their SMILES.

The nature of this experiment: Inhibition of IL-6 production in MALT-1 dependent human OCILY3 cells incubated for 48 hrs by AlphaLISA immunoassay. As to conditions: OCI-Ly3, 48 h. In kind it is functional, cell-based.

Turning to `CO[C@@H](C)c1c(Nc2ccc([C@H](N(C)C(=O)C3CCN(C(=O)[C@H](O)CO)CC3)C(F)(F)F)cc2)cnc2sc(C)nc12`, the EC50 was found to be 410 nM. `CO[C@@H](C)c1c(Nc2ccc([C@H](N(C)C(=O)C3CCS(=O)(=O)CC3)C(F)(F)F)cc2)cnc2sc(C)nc12`: the EC50 came out at 200 nM. Compared with the last compound, the EC50 is about 2-fold lower. The same measure for `CO[C@@H](C)c1c(Nc2ccc([C@H](N(C)C(=O)C3CCS(=O)(=O)CC3)C(F)(F)F)cc2)cnc2sc(C(F)F)nc12`: 300 nM.

`CO[C@H](C)c1c(Nc2ccc([C@H](N(C)C(=O)C3CCS(=O)(=O)CC3)C(F)(F)F)cc2)cnc2sc(C)nc12` registered an EC50 of 70 nM.

In turn, `CO[C@H](c1c(Nc2ccc([C@H](N(C)C(=O)C3CCS(=O)(=O)CC3)C(F)(F)F)cc2)cnc2sc(C)nc12)C(F)F` registered an EC50 of 140 nM. Against the preceding compound, the EC50 is about 2-fold higher. The compound `CO[C@H](c1c(Nc2ccc([C@@H](C(F)F)N(C)C(=O)C3CCN(C(=O)CO)CC3)cc2)cnc2sc(C)nc12)C(F)(F)F` came in with an EC50 of 270 nM.

In turn, `Cc1nc2c([C@H](C)C(F)(F)F)c(Nc3ccc([C@H](N(C)C(=O)C4CCS(=O)(=O)CC4)C(F)(F)F)cc3)cnc2s1` (single isomer, unassigned) registered an EC50 of 40 nM. Next, `CO[C@H](C)c1c(Nc2ccc([C@@H](C(F)F)N(C)C(=O)C3CCS(=O)(=O)CC3)cc2)cnc2sc(C)nc12`: 200 nM; `CO[C@H](c1c(Nc2ccc([C@@H](C(F)F)N(C)C(=O)C3CCN(C(=O)CO)CC3)cc2)cnc2sc(C)nc12)C(F)F`: 440 nM. On to `CO[C@@H](C)c1c(Nc2ccc([C@H](N(C)C(=O)C3CCN(C(=O)CCO)CC3)C(F)(F)F)cc2)cnc2sc(C)nc12`, for which the EC50 stood at 380 nM. `CO[C@H](c1c(Nc2ccc([C@H](N(C)C(=O)C3CCN(C(C)=O)CC3)C(F)(F)F)cc2)cnc2sc(C)nc12)C(F)F` displayed an EC50 of 1150 nM. Next, `CO[C@@H](c1c(Nc2ccc([C@H](N(C)C(=O)C3CCS(=O)(=O)CC3)C(F)(F)F)cc2)cnc2sc(C)nc12)C(F)F`: 340 nM.
